# Test results: patent US10336784B2, “Methods for modular synthesis of N-glycans and arrays thereof” (Academia Sinica, priority 2016, dated 2019)
# Entries after “also recorded” stand apart in the source; their conditions may differ.
# Tests used:
# PG16 [1] = test: Glycan microarray on NHS-coated glass slide, binding of PG16; parameters: species or system human; conditions: NHS-activated glass slide, glycans printed at 100 μM
# Experimental: To gain insights into the glycan specificities of these antibodies, the inventors used our newly developed array to profile the ligands of HIV-1 bNAbs. The synthetic N-glycan ligands were printed on NHS-activated glass slides through amide bond formation with 100 μM each of glycans 1-33 (FIG. 198). Each sample was printed with five replicates and slide images were obtained from a fluorescence scan after incubation with DyLight649-conjugated donkey anti-Human IgG antibody. […] Furthermore, PG9 and PGTs 141-145 were not detected to bind any of the glycans on the NHS array, probably due to their extremely weak binding. (FIGS. 203, 204A, 204B, 204C, 205A, 205B and 206).
# a) Fabrication of N-hydroxy succinimide-coated glass slide: All monovalent glycans (G1-33) were prepared in 10 mM concentration individually and served as mother solutions which are to be diluted with printing buffer to prepare a working solution. […]
# (§1) The slide was scanned at 635 nm with a microarray fluorescence chip reader (GenePix® 4300A, Molecular Devices Corporation). Scanned images were analyzed with GenePix Pro 6.0 analysis software (Molecular Devices Corporation,). […] The intensities was calculated and averaged. […]
# PG16 [2] = test: Determination of surface dissociation constants (KD,surf) on ACG slide; format: binding, human
# Text: (§2) To further understand why glycan binding to these bNAbs was not readily observed on the NHS-coated glass slides, the inventors conducted a specificity test with the ACG array. […] Therefore, the inventors can simply adjust the concentration of glycan to control the density and distance of glycans on the ACG surface. To prepare a representative ACG array, glycans I-XI (FIG. 5a) were linked to a phosphonic acid tail for spontaneous covalent immobilization on the ACG slide (Supplementary Scheme S21, as shown in FIG. 129). After incubation with a secondary antibody, the inventors determined the dissociation constant (KD.surf.)^59 of the glycans interacting with the antibody of interest. […]
# (§3) b) Fabrication of aluminum oxide coated glass slide. The aluminum oxide glass substrate provides advantages for being able to be assessed by both mass spectrometry and fluorescence scanning. […]
# The aluminum oxide coated glass slides for the determination of dissociation constants were spotted with 100 and 50 μM concentrations of glycans Man5GlcNAc2 (V), hybrid type (XI), bi-antennary complex type (XII), V+XI (1:1 mole ratio), V+XII, and XI+XII. […] Finally, slides were washed with PBST, spin dried and scanned at 450 nm with a microarray fluorescence chip reader. Scanned images were analyzed with GenePix Pro 6.0 analysis software. […]
# PG16 [3] = test: Glycan array on aluminium oxide-coated glass (ACG) slide, homo- and mixed glycans, binding of PG16; conditions: 100 μM glycan or mixtures of IV and XI
# Text: as §2, with “interest. Using the ACG slide, the signal intensity was enhanced, as shown by the use of PG16 at 1 μg/mL on the ACG slide in comparison to 25 μg/mL used on the NHS-coated glass slide (FIG. 5b and Supplementary FIG. 199).” for “interest.”
# as §3, §1
# PGTs 141-144 = test: Glycan array on ACG slide, binding of PGTs 141-144; parameters: species or system human; conditions: panel of glycans I-XI
# Experimental: To understand the exact glycan epitopes recognized by antibodies PGTs 141-145^20, a panel of glycans I-XI on the ACG slide was prepared for analysis.
# b) Fabrication of aluminum oxide coated glass slide. The aluminum oxide glass substrate provides advantages for being able to be assessed by both mass spectrometry and fluorescence scanning. […] There are many reports describing the surface of micron to nano pore structures of anodized aluminum oxide. However, only a few articles have mentioned the initial planar layer of aluminum oxide16 during the treatment of surface anodization. In the development of AAO glass substrate, a computer experimental design program (Design Expert 8.0) has been used to optimize the planar layer of surface anodized aluminum oxide to be best used in glycan microarray 17.
# Antibodies PG9, PG16 and PGTs 141-145 were diluted by binding buffer to 100 μg/mL prior to use. DyLight649-conjugated Donkey Anti-Human IgG antibody was then pre-complexed with primary antibodies. The final concentration of the precomplexed solution was adjusted to 50 μg/mL with binding buffer. […]
# as §1
# PG9 = test: Glycan array on aluminium oxide-coated glass (ACG) slide, homo- and mixed glycans, binding of PG9; conditions: homogeneous array of glycans I-XI
# Text: To evaluate whether the ACG array format could enhance the detection sensitivity, the inventors performed a ligand specificity profiling at various concentrations of PG9. […] Previously, it was shown that PG9 required Man5GlcNAc2 at primary (Asn160) and secondary (Asn156 or Asn173) binding sites together with a short peptide strand in gp120 recognition^26, whereas the composition of glycan at Asn156 or Asn173 was defined as a complex-type glycan in later studies^30,31. In the present study, the strong PG9 interaction with the hybrid-type structure compared to both Man5GlcNAc2 and complex-type glycans indicated the presence of a hybrid-type glycan or an oligomannose and a complex-type glycan in close proximity as ligand(s).
# To evaluate the glycan combination at Asn160 and Asn156/Asn173 of gp120 that best fits into the PG9 binding pocket, the inventors printed two different mixed-glycan arrays. […]
# as §3, §1
molecule,measurement,setting,value
Man5GlcNAc2,binding of PG16,PG16 [1],could not observe binding
same,signal intensities for binding of PG16,PG16 [2]; glycans spotted at 100 and 50 μM,too weak to determine the KD
same,binding of PG16,PG16 [3],unable to detect PG16 binding
CC(=O)N[C@H]1[C@H](O[C@H]2[C@H](O)[C@@H](NC(C)=O)C(O)O[C@@H]2CO)O[C@H](CO)[C@@H](O[C@@H]2O[C@H](CO[C@H]3O[C@H](CO[C@H]4O[C@H](CO)[C@@H](O)[C@H](O)[C@@H]4O[C@H]4O[C@H](CO)[C@@H](O)[C@H](O)[C@@H]4O)[C@@H](O)[C@H](O[C@H]4O[C@H](CO)[C@@H](O)[C@H](O)[C@@H]4O[C@H]4O[C@H](CO)[C@@H](O)[C@H](O)[C@@H]4O)[C@@H]3O)[C@@H](O)[C@H](O[C@H]3O[C@H](CO)[C@@H](O)[C@H](O)[C@@H]3O[C@H]3O[C@H](CO)[C@@H](O)[C@H](O)[C@@H]3O[C@H]3O[C@H](CO)[C@@H](O)[C@H](O)[C@@H]3O)[C@@H]2O)[C@@H]1O (stereo partly shown) [Man9GlcNAc2],binding of PGTs 141-144,PGTs 141-144,significant decrease in the affinity
"5-Aminopentyl-di-[5-Acetamido-3,5-dideoxy-D-glycero-α-D-galacto-2-nonulopyrano-sylonate-(2→6)-β-D-galactopyranosyl-(1→4)-2-acetamido-2-deoxy-β-D-glucopyranosyl-(1→2)-α-D-mannopyranosyl]-(1→3),(1→6)-β-D-mannopyranosyl-(1→4)-2-acetamido-2-deoxy-β-D-glucopyranosyl-(1→4)-(α-L-fucopyranosyl-(1→6)-2-acetamido-2-deoxy-β-D-glucopyranoside [glycan 19]",binding of PG16,PG16 [1],not affected by the presence of the core fucose
CC(=O)NC1C(O)[C@H](O[C@@H]2OC(CO[C@]3(C(=O)O)CC(O)[C@@H](NC(C)=O)C([C@H](O)[C@H](O)CO)O3)[C@H](O)C(O)C2O)C(CO)O[C@H]1OC1C(O)[C@H](O)C(CO)O[C@@H]1OC1C(O)[C@H](O[C@@H]2C(CO)O[C@@H](O[C@@H]3C(CO)O[C@@H](OCCNC(=O)OCCOCCOCCP(=O)(O)O)C(NC(C)=O)C3O)C(NC(C)=O)C2O)OC(CO[C@H]2OC(CO[C@H]3OC(CO)[C@@H](O)C(O)C3O)[C@@H](O)C(O[C@H]3OC(CO)[C@@H](O)C(O)C3O)C2O)[C@H]1O (stereo partly shown) [X],Kd,PG16 [2]; read-out: KD (binding affinity of PG16),0.935 µM
same,binding of PG9 to single glycans,PG9,apparent specificity; also recorded: significant enhancement in binding
